{"source": "paper PMC12040169", "about": "(PLOS Biology, 2025)", "data": [{"experiment": "in vitro", "conditions": "human, hela cells, % viability", "units": {"viability at 28.5 h, 10 µM": "%"}, "values": [{"smiles": "CCN(C(=O)Cn1c(C)cc(=O)c2ccccc21)C1CCOC(C)(C)C1", "note": "(stereo not drawn) [CBK306797]", "viability at 28.5 h, 10 µM": 93.6}, {"smiles": "CSCCCNC(=O)c1ccc2c(c1)nc(N1CC[C@H](O)C1)n2C", "note": "[CBK306807]", "viability at 28.5 h, 10 µM": 107}, {"smiles": "Cn1ncc(N2CCC(CNC(=O)COc3ccccc3)C2)cc1=O", "note": "(stereo not drawn) [CBK306810]", "viability at 28.5 h, 10 µM": 92.3}, {"smiles": "Cc1cc(=O)c2ccccc2n1CC(=O)N1CCOC2(CCCC2)C1", "note": "[CBK306811]", "viability at 28.5 h, 10 µM": 93.5}, {"smiles": "CCc1nccn1CCC(=O)NC1CCN(Cc2ccncc2)CC1", "note": "[CBK306813]", "viability at 28.5 h, 10 µM": 107}, {"smiles": "Cn1cccc1CCC(=O)NC1CCN(Cc2ccccc2Cl)CC1", "note": "[CBK306814]", "viability at 28.5 h, 10 µM": 88.4}, {"smiles": "Cc1cc(C(=O)NC(Cn2ccnc2)c2ccccc2)cc(=O)[nH]1", "note": "(stereo not drawn) [CBK306818]", "viability at 28.5 h, 10 µM": 94}, {"smiles": "O=C(c1cc(CO)ccn1)N(Cc1ccccn1)CC1CCCO1", "note": "(stereo not drawn) [CBK306820]", "viability at 28.5 h, 10 µM": 97}, {"smiles": "Cn1c(=O)oc2ccc(C(=O)N3CCn4nc(CO)cc4C3)cc21", "note": "[CBK306821]", "viability at 28.5 h, 10 µM": 85.6}, {"smiles": "Nc1nc(NCCOc2ccccc2Cl)cc(C2CC(N)C2)n1", "note": "(stereo not drawn) [CBK306825]", "viability at 28.5 h, 10 µM": 75.2}, {"smiles": "Cc1nn(C)c2nc(NCc3ccc(C(=O)N4CCCCC4)cc3)sc12", "note": "[CBK306826]", "viability at 28.5 h, 10 µM": 86.6}, {"smiles": "O=C(O)CC1COCCN1Cc1ccc(Cn2cccn2)cc1", "note": "(stereo not drawn) [CBK306827]", "viability at 28.5 h, 10 µM": 89.1}, {"smiles": "CCn1c(C)nnc1SCCNc1cc(C(C)C)nc2ccnn12", "note": "[CBK306829]", "viability at 28.5 h, 10 µM": 81.4}, {"smiles": "Cn1nc(NC(=O)CN2CCOC2=O)c2c(N3CCOCC3)cccc21", "note": "[CBK306830]", "viability at 28.5 h, 10 µM": 102}, {"smiles": "COc1ccc2cc(C(=O)N(CCO)Cc3ccc(C)s3)n(C)c2c1", "note": "[CBK306831]", "viability at 28.5 h, 10 µM": 116}, {"smiles": "CCCN1CC(NS(=O)(=O)c2cc(-n3cccn3)ccc2C)CC1=O", "note": "(stereo not drawn) [CBK306835]", "viability at 28.5 h, 10 µM": 98.3}, {"smiles": "Cc1ccc(CNC(=O)c2ccc3c(c2)nc(N2CC[C@H](O)C2)n3C)s1", "note": "[CBK306837]", "viability at 28.5 h, 10 µM": 90.9}, {"smiles": "CNC(=O)c1cn2cc(-c3cccs3)n(CC3CC3)c(=O)c2n1", "note": "[CBK306838]", "viability at 28.5 h, 10 µM": 84}, {"smiles": "COc1cc(NC(=O)CN2CCc3c(c(CO)nn3C)C2)cc(OC)c1", "note": "[CBK306841]", "viability at 28.5 h, 10 µM": 114}, {"smiles": "COc1ccccc1CN(Cc1cccnc1)C(=O)CNC(C)=O", "note": "[CBK306843]", "viability at 28.5 h, 10 µM": 96.2}, {"smiles": "CCOc1ccc(NC(=O)N(Cc2ccccn2)CC2CCCO2)cc1", "note": "(stereo not drawn) [CBK306847]", "viability at 28.5 h, 10 µM": 83.7}, {"smiles": "COCCN(C)c1ccc(C(=O)N2CCC(N3CCOCC3)CC2)cn1", "note": "[CBK306851]", "viability at 28.5 h, 10 µM": 111}, {"smiles": "Cn1nc(C(=O)N2Cc3cnn(Cc4ccc(F)cc4)c3C2)ccc1=O", "note": "[CBK306855]", "viability at 28.5 h, 10 µM": 83}, {"smiles": "COCCn1c(CO)nnc1[C@H]1C[C@@H](NC(=O)c2ccc(F)cc2C)C1", "note": "[CBK306856]", "viability at 28.5 h, 10 µM": 94.7}, {"smiles": "Cc1[nH]c(=O)c(C#N)cc1C(=O)N(C)Cc1cc(-c2ccncc2)no1", "note": "[CBK306859]", "viability at 28.5 h, 10 µM": 113}, {"smiles": "O=C(NC1CCC1)c1cn2cc(-c3cccs3)n(CC3CC3)c(=O)c2n1", "note": "[CBK306863]", "viability at 28.5 h, 10 µM": 82.9}, {"smiles": "COc1cccc(C(=O)NCCC(=O)N2CCCC(c3ncc[nH]3)C2)c1", "note": "(stereo not drawn) [CBK306864]", "viability at 28.5 h, 10 µM": 82.5}, {"smiles": "CC(=O)Nc1cccc(C(=O)N(Cc2ccccn2)CC2CCCO2)c1", "note": "(stereo not drawn) [CBK306867]", "viability at 28.5 h, 10 µM": 90.5}, {"smiles": "Cc1cc(=O)c2ccccc2n1CC(=O)N1CCC2(CCOCC2)CC1", "note": "[CBK306869]", "viability at 28.5 h, 10 µM": 94.7}, {"smiles": "COc1ncc(C(=O)NCc2cccnc2N(C)C2CCCCC2)cn1", "note": "[CBK306870]", "viability at 28.5 h, 10 µM": 91.8}, {"smiles": "CCCC(C)c1cn(CCc2cc(O)nc(C)n2)nn1", "note": "(stereo not drawn) [CBK306871]", "viability at 28.5 h, 10 µM": 93.8}, {"smiles": "Cn1c(N2CC[C@H](O)C2)nc2cc(C(=O)NC3CCNCC3)ccc21", "note": "[CBK306873]", "viability at 28.5 h, 10 µM": 98.1}, {"smiles": "Cc1cc(O)n2nc(CC(=O)NCCCn3ccnc3C(C)C)nc2n1", "note": "[CBK306876]", "viability at 28.5 h, 10 µM": 91.5}, {"smiles": "Cc1c(C(=O)NCCN2CCCC(C(N)=O)C2)[nH]c2c(F)cccc12", "note": "(stereo not drawn) [CBK306877]", "viability at 28.5 h, 10 µM": 81.7}, {"smiles": "CCCCSc1nc(N)cc(N2CCC(C(=O)NCC)C2)n1", "note": "(stereo not drawn) [CBK306880]", "viability at 28.5 h, 10 µM": 88.2}, {"smiles": "O=C(NCCc1cccs1)Nc1cccc(CN2CCCCC2)c1", "note": "[CBK306882]", "viability at 28.5 h, 10 µM": 96.1}]}]}
